We go through eleven compounds from ChEMBL document CHEMBL1201862, “PubChem BioAssay data set” (2004).

Test systems include 786-0; ACHN; CAKI-1; CCRF-CEM; HCT-116; HOP-62; Hs-578T; IGROV-1; K562; LOX IMVI; MDA-N; OVCAR-3; OVCAR-5; RPMI-8226; SK-MEL-28; SN12C; U-251; SF-539; HL-60; HOP-92.
What all share (assay): growth of human tumour cells (NCI), 48 h

Structures are written as SMILES.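 1) Cells in 96-well plates. 2) Compound, 48 h, 5 concentrations. 3) Linear interpolation between surrounding doses. 4) Unreached endpoint = highest concentration. The concentration for 50% growth inhibition is given as GI50.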 Calls of active or inactive are those of the source. Cut-off read from the data, not from the text of the source: active = GI50 up to about 1.1 µM and inactive = higher.

In the case of `CNC1=Nc2ccccc2C(=O)N2CSCC12` (centres undefined), the GI50 with 786-0, in the experiment with ACHN, with CAKI-1, in the experiment with CCRF-CEM, in the experiment with HCT-116 and in the experiment with HOP-62 was > 100 µM (inactive) each time. Besides, the GI50 with Hs-578T, with IGROV-1, with K562, in the experiment with LOX IMVI, in the experiment on MDA-N and in the experiment with OVCAR-3 was > 100 µM (inactive) each time. For the same compound, the GI50 with OVCAR-5, in the experiment with RPMI-8226, in the experiment on SK-MEL-28, in the experiment on SN12C and with U-251 was > 100 µM (inactive) each time.
As for `Cc1ccc(N/C(=C(/C(Cl)=C(Cl)Cl)[N+](=O)[O-])n2nnc3ccccc32)cc1`, the GI50 with 786-0 is 20.8 µM (inactive); in the experiment with ACHN, 21.4 µM (inactive); in the experiment on CAKI-1, 17.7 µM (inactive); with CCRF-CEM it was 7.06 µM (inactive); in the experiment on HCT-116, 30 µM (inactive); with HOP-62, 18.2 µM (inactive). The GI50 in the experiment on Hs-578T was 25.8 µM (inactive); with K562, 23.6 µM (inactive); with MDA-N, 18.9 µM (inactive); in the experiment with OVCAR-3, 16.7 µM (inactive); in the experiment on OVCAR-5, 20.1 µM (inactive); with RPMI-8226 it was 20.2 µM (inactive). Further, the GI50 with SF-539 was 15.2 µM (inactive); with SK-MEL-28, 17.5 µM (inactive); with SN12C, 20.4 µM (inactive).
As to `CCCn1c(SC)nc(COC(=O)NC)c1COC(=O)NC`, the GI50 with 786-0, in the experiment with ACHN, in the experiment on CAKI-1, in the experiment on CCRF-CEM, in the experiment with HCT-116 and in the experiment with HL-60 was > 100 µM (inactive) in each case. Moreover, the GI50 in the experiment with HOP-62, in the experiment with Hs-578T, with IGROV-1, with K562, in the experiment with LOX IMVI and in the experiment with MDA-N was > 100 µM (inactive) each time. In addition, the GI50 in the experiment on OVCAR-3, with OVCAR-5, in the experiment with RPMI-8226, in the experiment on SF-539, with SK-MEL-28 and in the experiment on SN12C was > 100 µM (inactive) in each case.
With `CC(=O)O[C@H]1C(=O)[C@@]2(C)[C@H]([C@H](OC(=O)c3ccoc3)[C@]3(O)C[C@H](OC(=O)[C@H](O)[C@@H](NC(=O)c4ccccc4)c4ccccc4)C(C)=C1C3(C)C)[C@]1(OC(C)=O)CO[C@@H]1C[C@@H]2O`, the GI50 in the experiment with 786-0 is 0.38 µM (active); with ACHN, 2.1 µM (inactive); in the experiment on CAKI-1, 8.18 µM (inactive); in the experiment on CCRF-CEM it was 0.0566 µM (active); with HCT-116, 0.0186 µM (active); with HL-60, 0.0107 µM (active). Besides, the GI50 in the experiment on HOP-62 is 0.206 µM (active); with HOP-92 it was > 12.5 µM (inactive); in the experiment with Hs-578T it was 0.0249 µM (active); with IGROV-1 it was 0.0962 µM (active); in the experiment on K562, 0.0324 µM (active); in the experiment on LOX IMVI, 0.032 µM (active). For the same compound, the GI50 in the experiment with OVCAR-3 was 0.0296 µM (active); in the experiment with OVCAR-5, 0.0953 µM (active); in the experiment with RPMI-8226 it was 0.00904 µM (active); with SF-539, 0.0286 µM (active); in the experiment with SK-MEL-28 it was > 12.5 µM (inactive); with U-251 it was 0.0811 µM (active).
Turning to `O=c1oc2ccccc2n1CCCn1c(=O)oc2ccccc21`, the GI50 was > 100 µM (inactive) in the experiment on 786-0; 92.5 µM (inactive) in the experiment on ACHN; > 100 µM (inactive) in the experiment on CAKI-1; > 100 µM (inactive) with CCRF-CEM; > 100 µM (inactive) with HCT-116; > 100 µM (inactive) with HL-60. The GI50 in the experiment with HOP-62, in the experiment on Hs-578T, in the experiment on IGROV-1, in the experiment on K562, with LOX IMVI and with OVCAR-3 was > 100 µM (inactive) each time. Further, the GI50 in the experiment on OVCAR-5 is > 100 µM (inactive); in the experiment on RPMI-8226 it was > 100 µM (inactive); in the experiment with SF-539, > 100 µM (inactive); in the experiment on SK-MEL-28, > 100 µM (inactive); with SN12C, > 100 µM (inactive); with U-251, 47.9 µM (inactive).
For the compound `O=c1ssc(Cl)c1Nc1c(Cl)ssc1=O`, the GI50 was 17.8 µM (inactive) in the experiment on 786-0; > 40 µM (inactive) in the experiment with ACHN; 15.2 µM (inactive) in the experiment on CAKI-1; 3.78 µM (inactive) in the experiment with CCRF-CEM; 17.5 µM (inactive) with HCT-116; 7.85 µM (inactive) in the experiment on HL-60. The GI50 with HOP-62 is 20.7 µM (inactive); in the experiment on HOP-92 it was 20 µM (inactive); in the experiment with Hs-578T, 36.4 µM (inactive); in the experiment on IGROV-1 it was 18.2 µM (inactive); in the experiment on K562, 6.44 µM (inactive); in the experiment with LOX IMVI it was 14.8 µM (inactive). Also, the GI50 in the experiment with OVCAR-3 was 20.5 µM (inactive); with OVCAR-5, 19.4 µM (inactive); in the experiment on RPMI-8226, 9.08 µM (inactive); with SF-539 it was 25.1 µM (inactive); with SK-MEL-28 it was 28.4 µM (inactive); in the experiment with SN12C, 19.5 µM (inactive). The GI50 in the experiment with U-251 is 19.5 µM (inactive).
In the case of `Cc1ccc(C(=O)N/N=C(\N=N\c2ccc(C(=O)O)cc2)c2ccc(N(CCC#N)CCC#N)cc2C)cc1`, the GI50 in the experiment with 786-0 is > 100 µM (inactive); with ACHN it was > 100 µM (inactive); with CAKI-1, > 100 µM (inactive); in the experiment on CCRF-CEM, > 100 µM (inactive); with HCT-116 it was > 100 µM (inactive); with HL-60 it was 79.3 µM (inactive). Also, the GI50 with HOP-62 was > 100 µM (inactive); in the experiment with HOP-92, > 100 µM (inactive); in the experiment on K562 it was > 100 µM (inactive); with LOX IMVI, > 100 µM (inactive); in the experiment on MDA-N it was > 100 µM (inactive); in the experiment with OVCAR-3, 62.8 µM (inactive). The GI50 in the experiment on OVCAR-5, in the experiment on RPMI-8226, in the experiment with SF-539, in the experiment with SK-MEL-28, with SN12C and with U-251 was > 100 µM (inactive) each time.
`COC(=O)NC1(NC(=O)OC)NC(=O)c2cc(OC)c(OC)cc2N1`: the GI50 in the experiment with 786-0 is 32.6 µM (inactive); in the experiment with ACHN, 64 µM (inactive); in the experiment on CAKI-1, 19.2 µM (inactive); with CCRF-CEM, 5.21 µM (inactive); with HCT-116, 29.8 µM (inactive); in the experiment on HOP-62 it was 3.14 µM (inactive). In addition, the GI50 in the experiment with Hs-578T was 29.4 µM (inactive); with IGROV-1, 32.1 µM (inactive); in the experiment on K562, 34.2 µM (inactive); in the experiment with LOX IMVI it was 62.1 µM (inactive); in the experiment with MDA-N, 3.83 µM (inactive); with OVCAR-3, 21.2 µM (inactive). The GI50 with OVCAR-5 was > 100 µM (inactive); in the experiment on RPMI-8226, 32.5 µM (inactive); in the experiment on SF-539, 25.6 µM (inactive); in the experiment with SK-MEL-28, 29.3 µM (inactive); with SN12C, > 100 µM (inactive).
For the compound `COc1cc2oc(=O)cc(C)c2c(OC)c1O`, the GI50 with 786-0 is > 100 µM (inactive); with ACHN, > 100 µM (inactive); with CCRF-CEM it was > 100 µM (inactive); in the experiment with HCT-116 it was > 100 µM (inactive); in the experiment with HOP-62 it was > 100 µM (inactive); in the experiment on Hs-578T it was 25.2 µM (inactive). For the same compound, the GI50 in the experiment with IGROV-1, in the experiment on K562, in the experiment with LOX IMVI, with MDA-N, in the experiment on OVCAR-3 and in the experiment on OVCAR-5 was > 100 µM (inactive) throughout. Besides, the GI50 with RPMI-8226, in the experiment with SF-539, in the experiment on SK-MEL-28, with SN12C and in the experiment with U-251 was > 100 µM (inactive) throughout.
`C[N+]1(CCN=C=NC2CCCCC2)CCOCC1`: the GI50 with 786-0, in the experiment with ACHN, in the experiment with CAKI-1, in the experiment with CCRF-CEM, in the experiment with HCT-116 and in the experiment with HL-60 was > 100 µM (inactive) throughout. For the same compound, the GI50 in the experiment with HOP-62, in the experiment on HOP-92, with Hs-578T, with IGROV-1, with K562 and with LOX IMVI was > 100 µM (inactive) each time. The GI50 was > 100 µM (inactive) in the experiment on OVCAR-3; > 100 µM (inactive) in the experiment on OVCAR-5; > 100 µM (inactive) in the experiment with RPMI-8226; > 100 µM (inactive) with SF-539; > 100 µM (inactive) in the experiment on SK-MEL-28; 22.9 µM (inactive) in the experiment with SN12C. For the same compound, in the experiment with U-251, the GI50 is > 100 µM (inactive).
For `O=[N+]([O-])/C(C(Cl)=C(Cl)Cl)=C1\NCCS1`, the GI50 is 36.1 µM (inactive) in the experiment with 786-0; 61 µM (inactive) in the experiment on ACHN; 45.7 µM (inactive) in the experiment with CAKI-1; 19.1 µM (inactive) in the experiment on CCRF-CEM; 43.3 µM (inactive) in the experiment on HCT-116; 16.9 µM (inactive) in the experiment on HL-60. In addition, the GI50 in the experiment with HOP-62 is > 100 µM (inactive); in the experiment on Hs-578T, 27.4 µM (inactive); in the experiment with IGROV-1, 62.4 µM (inactive); in the experiment with K562 it was 18.8 µM (inactive); in the experiment with LOX IMVI, 20.1 µM (inactive); in the experiment with OVCAR-3, 33.3 µM (inactive). The GI50 in the experiment on OVCAR-5 is > 100 µM (inactive); in the experiment on RPMI-8226 it was 19 µM (inactive); with SF-539 it was 42.5 µM (inactive); in the experiment on SK-MEL-28, 48.2 µM (inactive); with SN12C it was 36.5 µM (inactive); with U-251, 45.8 µM (inactive).
